Laboratory results published in US20230339878A1, “SLC26A3 INHIBITORS AND USE THEREOF” (THE REGENTS OF THE UNIVERSITY OF CALIFORNIA, priority 2018, published 2023).
Entries after “also recorded” stand apart in the source; their conditions may differ.

Key:
slc26a3 = biological target: T1, slc26a3 (Mus musculus, UniProt Q9WVC8); assay: slc26a3-mediated Cl-/SCN- exchange; type: cell-based, murine; details: read-out: IC50 for inhibition of slc26a3-mediated Cl-/SCN- exchange
T1 construct: host or cells: Fischer rat thyroid (FRT) cells expressing YFP, clonal line FRT-YFP-slc26a3
T1 sequence (Q9WVC8 1-757): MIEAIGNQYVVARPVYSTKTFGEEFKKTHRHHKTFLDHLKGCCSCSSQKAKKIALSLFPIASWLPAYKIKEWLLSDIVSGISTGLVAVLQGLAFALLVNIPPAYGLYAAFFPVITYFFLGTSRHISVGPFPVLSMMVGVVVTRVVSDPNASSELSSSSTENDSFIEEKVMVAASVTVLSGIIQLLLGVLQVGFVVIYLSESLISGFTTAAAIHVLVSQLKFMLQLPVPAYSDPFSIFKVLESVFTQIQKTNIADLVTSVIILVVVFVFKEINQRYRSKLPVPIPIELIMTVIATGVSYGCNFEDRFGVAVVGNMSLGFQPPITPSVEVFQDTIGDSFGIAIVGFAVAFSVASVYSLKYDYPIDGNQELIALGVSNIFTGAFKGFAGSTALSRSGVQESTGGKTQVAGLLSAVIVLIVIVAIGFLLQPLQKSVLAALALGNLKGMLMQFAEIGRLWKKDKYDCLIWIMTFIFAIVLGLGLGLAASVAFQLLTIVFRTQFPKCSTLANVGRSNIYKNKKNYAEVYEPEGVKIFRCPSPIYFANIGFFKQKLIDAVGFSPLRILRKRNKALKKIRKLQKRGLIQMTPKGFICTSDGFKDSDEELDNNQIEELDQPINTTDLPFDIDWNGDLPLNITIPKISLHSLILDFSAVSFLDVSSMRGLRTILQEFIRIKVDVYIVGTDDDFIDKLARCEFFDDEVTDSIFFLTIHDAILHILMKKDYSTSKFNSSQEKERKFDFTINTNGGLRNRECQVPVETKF
Method: Concentration-dependence measurements for inhibition of slc26a3-mediated exchange of Cl^- and HCO3^-, the physiologically relevant activity of slc26a3, was measured using slc26a3-expressing FRT cells labeled with BCECF as a cytoplasmic pH sensor. Labeled cells were initially incubated in a Cl^--containing HCO3^- buffered solution, and HCO3^- influx / Cl^- efflux with cytoplasmic alkalinization was produced by addition of a gluconate-containing HCO3^- buffered solution. […] Concentration-dependence measurements for inhibition of slc26a3-mediated Cl^-/SCN^- exchange gave an IC50 of ~0.3 µM (FIG. 4B).

[1] = system: acute hyperoxaluria in mice; assay: Acute hyperoxaluria induced by oral sodium oxalate; type: in vivo
Method: The efficacy of Compound A1 (DRAinh-A250) and DRAinh-A270 were tested in models of acute hyperoxaluria and oxalate nephropathy in mice. To induce acute hyperoxaluria, mice were given sodium oxalate ([…]) with or without 5 mg/kg Compound A1 by oral gavage at zero time and urine was collected for the next 4 hours in metabolic cages. A group of mice were used as controls and treated with vehicle only (no sodium oxalate or DRA inhibitor) and their urine was collected for 4 hours in metabolic cages as well. Using the 4 hour urine samples, urine oxalate/creatinine ratio was determined to quantify urinary oxalate excretion.
Similar experiments were performed for DRAinh-A270 in the acute hyperoxaluria model. For these experiments mice were first placed in metabolic cages to collect urine for 4 hours without any treatment. After this initial collection, the mice were treated with DRAinh-A270 (10 mg/kg) or vehicle intraperitoneally, and given sodium oxalate ([…], in water) by oral gavage at zero time. Urine was collected for the next 4 hours in metabolic cages.

[2] = system: cystic fibrosis (CF) mice (ΔF508 homozygous) lacking functional CFTR; assay: Loperamide-induced constipation model in cystic fibrosis mice; type: in vivo; details: 5 mg/kg oral
Method: Female CD1 mice (age 8-10 weeks) were administered loperamide (0.3 mg/kg, intraperitoneally, Sigma-Aldrich) to produce constipation. Compound A1 (DRAinh-A250) (5 mg/kg, in saline containing vehicle (5% DMSO and 10% Kolliphor HS 15; Sigma-Aldrich)), tenapanor (5 mg/kg, in vehicle), both compounds (5 mg/kg each, in vehicle), or vehicle alone were administered by oral gavage 1 hour before loperamide. After loperamide injection, mice were placed individually in metabolic cages with ad libitum access to food and water. Stool samples were collected for 3 h, and total stool weight and number of fecal pellets were quantified. To measure stool water content, stool samples were dried at 80° C. for 24 h and water content was calculated as [wet weight-dry weight]/wet weight. Similar studies were done in cystic fibrosis (CF) mice (ΔF508 homozygous) lacking functional CFTR.

[3] = Pharmacokinetics in mice, serum LC/MS; type: in vivo; details: for oral bioavailability / bioavailability: 5 mg/kg (A1, A260) or 10 mg/kg (A270), mice; for bioavailability: mouse, serum, po, n=3, read-out: oral bioavailability (mean±SEM)
Method: Pharmacokinetics of the Compound A1(DRAinh-A250) and analogs (DRAinh-A260 and DRAinh-A270) was determined in mice. After single dose intraperitoneal or oral administration (5 mg/kg for Compound A1 and DRAinh-A260, 10 mg/kg for DRAinh-A270), blood samples were collected via retro-orbital puncture at different time points and serum was separated by centrifugation. Compound concentrations were measured in serum using LC/MS. FIGS. 10A, 10B, 10C show the respective serum concentration of Compound A1 (FIG. 10A), DRAinh-A260 (FIG. 10B) and DRAinh-A270 (FIG. 10C) after single oral or intraperitoneal administration at zero time (n=3 mice per compound per administration route). Compound A1 had predicted therapeutic levels for at least 24 hours after single dose oral or intraperitoneal administration. […] (mean±SEM): 53.9±6.5% for Compound A1, 16.4±6.6% for DRAinh-A260, and 39.3±3.5% for DRAinh-A270.

Cc1c(CC(=O)O)c(=O)oc2c(C)c(OCc3cccc(Br)c3)ccc12 [Compound A1]
IC50 (slc26a3): ~300 nM | 4 hour urine oxalate/creatinine ratio (hyperoxaluria) ([1]; 5 mg/kg oral gavage with sodium oxalate 1 µmol/kg): largely prevented hyperoxaluria | efficacy in loperamide-induced constipation in CF mice [2]: effective in loperamide-treated cystic fibrosis mice; also recorded: reduces loperamide-induced constipation | oral bioavailability [3]: 54% | time with predicted therapeutic serum levels ([3]; 5 mg/kg single dose oral or intraperitoneal): at least 24 hours | bioavailability [3]: 53.9 ± 6.5%

Cc1c(CC(=O)O)c(=O)oc2c(C)c(OCc3cccc(I)c3)ccc12 [DRAinh-A270]
4-hour urine oxalate/creatinine ratio (hyperoxaluria) ([1]; 10 mg/kg intraperitoneally, sodium oxalate 2.5 µmol/kg oral): largely prevented hyperoxaluria | oral bioavailability [3]: 39% | time with predicted therapeutic serum concentrations ([3]; 10 mg/kg single dose oral or intraperitoneal): for several days | bioavailability [3]: 39.3 ± 3.5%
